Key:
[1] = test system: eIF2α phosphorylation (ATF-4 5′UTR luciferase reporter); experiment: surrogate eIF2α phosphorylation dual-luciferase reporter (DLR) assay; format: cell-based; details: for fold induction at 1.25 µM / fold induction at 5 µM: F/R luciferase ratio normalized to DMSO wells (F/R=1); for fold induction at 1.25 µM: read-out: Fold stimulation of ATF-4 Surrogate eIF2α @ 1.25 μM; for fold induction at 5 µM: read-out: Fold stimulation of ATF-4 Surrogate eIF2α @ 5 μM
Source text: The dual luciferase expression vector and other plasmids used in the Examples provided herein have been previously reported (see e.g., Ziegeler et al, J. Biol. Chem. 285 (2010) 15408-15419). The dual luciferase surrogate eIF2α phosphorylation assay, has also been previously reported (see e.g., Chen et al, Nat. Chem. Biol. 7 (2011) 610-616). Briefly, a dual Renilla and Firefly luciferase mammalian reporter vector that transcribes both mRNAs from the same bi-directional enhancer/promoter complex was utilized for generation of surrogate eIF2α phosphorylation assay (see e.g., Ziegeler et al, J. Biol. Chem. 285 (2010) 15408-15419). Both mRNAs contained the same 90 nucleotide plasmid derived 5′UTR. In addition, 5′UTR of the Firefly luciferase open reading frame was fused in-frame to the 267 nucleotide ATF-4 5′UTR (see e.g., Chen et al, Nat. Chem. Biol. 7 (2011) 610-616).
Cells expressing firefly and renilla luciferases were assayed with a dual glow luciferase assay kit, per manufacturer's instruction (Promega Inc., Madison, WI). The data calculations were carried out as the ratio of firefly to renilla luciferase signal (see e.g., Ziegeler et al, J. Biol. Chem. 285 (2010) 15408-15419). Dose-response curves were obtained, and triplicate data points were fitted to the logistical sigmoidal model using nonlinear least-squares regression performed in GraphPad Prism 6.
All newly synthesized N,N′-disubstituted ureas were initially evaluated by testing in the surrogate eIF2α phosphorylation dual-luciferase reporter (DLR) assay (see e.g., Chen et al, Nat. Chem. Biol. 7 (2011) 610-616; and Ziegeler et al, J. Biol. Chem. 285 (2010) 15408-15419). Briefly, this assay takes advantage of the fact that activated HRI phosphorylates eIF2α which inhibits eIF2 guanine nucleotide exchange factor eIF2B, responsible for exchanging the GDP in the eIF2·GDP complex for GTP. The reduction in the recycling of eIF2·GDP into eIF2·GTP interferes with the formation of eIF2·GTP·Met-tRNAi ternary complex. […] These include mRNA coding for activating transcription factor 4 (ATF-4) (see e.g., Aktas et al, Oncotarget, 4 (2013) 1606-1617; Aktas et al, Oncotarget, 6 (2015) 6902-6914; and Aktas et al, Proc. Natl. Acad. Sci. U.S.A. 95 (1998) 8280-8285).
In the present assay, firefly (F) luciferase mRNA was fused to the 5′UTR of ATF-4 mRNA that had multiple uORFs, while renilla (R) luciferase mRNA was fused to a 5′UTR lacking any uORFs. Agents that reduce the amount of the eIF2·GTP·Met-tRNAi ternary complex, such as N,N′-disubstituted ureas that activate HRI, increase F luciferase expression while reducing the R luciferase expression, resulting in an increased F/R luciferase ratio. The ureas of the present application were tested at 10 μM, 5 μM, 2.5 μM, and 1.25 μM concentrations in 96-well assay plates (see e.g., Chen et al, Nat. Chem. Biol. 7 (2011) 610-616; and Bai et al, ChemBioChem, 14 (2013) 1255-1262). The activity scores as the F/R ratios were calculated for every compound-treated well and normalized to F/R ratio of vehicle-treated (DMSO) wells in the same plate, arbitrarily set at 1 (F/R=1). Data obtained in the surrogate dual-luciferase eIF2α phosphorylation (DLR) assay for the series of 1-phenyl-3/4-(4-trifluorometyl) phenoxy-cycloalkyl)ureas (4-CF3-ΦcAlkΦUs) and 1-phenyl-3-(5-(4-(trifluoromethyl) phenoxy)pyrimidin-2-yl)ureas (4-CF3-ΦOPyΦUs) described herein are shown in Tables 1-2.

[2] = test system: human melanoma CRL-2813 cells; experiment: sulforhodamine B (SRB) cell proliferation assay; format: cell-based; details: Homo sapiens, CRL2813, 120 h, 5 days, read-out: IC50 (concentration that inhibits growth of human melanoma CRL-2813 cells by 50%)
Description: Cells were seeded in 96-well plates and maintained for 5 days in the presence of 0.5 μM to 20 μM of individual compound, and cell proliferation was measured by the sulforhodamine B (SRB) assay according to previous reports (see e.g., Palakurthi et al, Cancer Res. 60 (2000) 2919-2925): briefly, at the end of a 5-day treatment, cells were fixed in 10% cold trichloroacetic acid. Cell number was estimated by measuring the remaining bound dye of sulforhodamine B after washing. The percentage of growth was calculated by using the equation: 100×[(T-T0)/(C-T0)], where T and C represent the absorbance in treated and control cultures at Day 5, and T0 at time zero, respectively. If T was less than T0, cell death had occurred and was calculated from 100×[(T-T0)/T0].
All 4-CF3-ΦOcAlkΦUs were tested in the sulforhodamine B (SRB) cell proliferation assay to establish the concentrations that inhibit human melanoma CRL-2813 cells growth by 50% (IC50) (see Table 1). This activity reflects a combined effect of membrane permeability and overall anti-proliferative effects that include on target and off-target effects.

CHOP = experiment: Western blot, CHOP expression in CRL-2813 cells; format: cell-based, human; details: 5 μM, 8 hours, Western blot (FIG. 2B)
Description: (§1) FIGS. 2A-2B show HRI activators of the present application induce eIF2α phosphorylation and modify its downstream effectors. In FIG. 2A, CRL-2813 cells were treated with 5 μM of each compound for 2 hours, cell lysates were probed with phosphorylated (P-eIF2α) and total eIF2α (T-eIF2α) and β-actin specific antibodies. In FIG. 2B, CRL-2813 cells were treated with 5 μM HRI activators for 8 hours and lysates were immunoblotted with antibodies against CHOP, p27^KiPl, cyclin D1 and β-actin.
(§2) Cells cultured under recommended media conditions were plated and maintained in serum-containing media without antibiotics in 14-cm plates (Nunc) until reaching 70% confluence. Cells were then treated with compounds for 6 h, washed with cold PBS once, and lysed with M-PER Mammalian Protein Extraction Reagent (Pierce) for 30 min on ice. The cell lysates were centrifuged at 12,000 RPM for 15 min and the supernatants were transferred to fresh tubes and the concentrations were determined by BCA (Pierce). Equal amount of proteins were mixed with Laemmli Sample Buffer, heated at 100° C. for 5 min, separated by SDS-PAGE, and probed with anti-phosphoserine-51-eIF2α (Phos-eIF2α), anti-total eIF2α-specific antibodies (Total-eIF2α) (Biosource International, Hopkinton, MA), anti-CHOP, anti-cyclin D1 or anti-actin (Santa Cruz Biotechnology, CA) using procedures substantially similar to previous reports (see e.g., Aktas et al, Mol. Cell. Biol. 17 (1997) 3850-3857).
(§3) Endogenous eIF2α is the best-known substrate of HRI and the upstream regulator of the eIF2·GTP·Met-tRNAi ternary complex abundance, while CHOP expression is a downstream effector of eIF2α phosphorylation. For assessing eIF2α phosphorylation, blotted cell lysates were treated for two hours with vehicle or selected compounds using antibodies specific for the total-eIF2α and the phosphorylated-eIF2α (T-eIF2α and [PhoS^51]-eIF2α), respectively (see e.g., Aktas et al, J. Nutr. 134 (2004) 2487S-2491S) (see FIG. 2A).

cyclin D1 = experiment: Western blot, cyclin D1 expression in CRL-2813 cells; format: cell-based, human; details: 5 μM, 8 hours, Western blot (FIG. 2B)
Description: as §1, §2, §3

endogenous eIF2α = experiment: Western blot, phosphorylation of endogenous eIF2α in CRL-2813 cells; format: cell-based, human; details: 5 μM, 2 hours, Western blot (FIG. 2A)
Description: as §1
Cells cultured under recommended media conditions were plated and maintained in serum-containing media without antibiotics in 14-cm plates (Nunc) until reaching 70% confluence. Cells were then treated with compounds for 6 h, washed with cold PBS once, and lysed with M-PER Mammalian Protein Extraction Reagent (Pierce) for 30 min on ice. The cell lysates were centrifuged at 12,000 RPM for 15 min and the supernatants were transferred to fresh tubes and the concentrations were determined by BCA (Pierce). […]

| SMILES | fold induction at 1.25 µM [1] | fold induction at 5 µM [1] | IC50 [2] | expression of CHOP relative to DMSO (CHOP) | expression of cyclin D1 relative to DMSO (cyclin D1) | melting point | activity in the DLR assay (in words) [1] | phosphorylation of endogenous eIF2α (endogenous eIF2α) |
| --- | --- | --- | --- | --- | --- | --- | --- | --- |
| Cc1ccc(F)cc1NC(=O)N[C@H]1CC[C@H](Oc2ccc(C(F)(F)F)cc2)CC1 [Compound 7-VI, 1-(5-Fluoro-2-methylphenyl)-3-(trans-4-(4-(trifluoromethyl)phenoxy)cyclohexyl)urea] | 1.8 ± 0.8 | 1.5 ± 0.4 | 5.3 ± 1.8 µM | increased the expression of CHOP | decreased the expression of cyclin D1 | 238.2 to 239.8 °C | – | – |
| N#Cc1ccc(F)c(NC(=O)N[C@H]2CC[C@H](Oc3ccc(C(F)(F)F)cc3)CC2)c1 [Compound 6-VI, 1-(5-Cyano-2-fluorophenyl)-3-(trans-4-(4-(trifluoromethyl)phenoxy)cyclohexyl)urea] | 1 ± 0.3 | 1.5 ± 0.5 | > 10 µM | did not increase expression of CHOP | did not inhibit the expression of cyclin D1 | 234.6 to 237 °C | inactive | least active |
| O=C(Nc1cccc(F)c1F)N[C@H]1CC[C@H](Oc2ccc(C(F)(F)F)cc2)CC1 [Compound 11-VI, 1-(2,3-Difluorophenyl)-3-(trans-4-(4-(trifluoromethyl)phenoxy)cyclohexyl)urea] | 4.7 ± 1 | 9.9 ± 1.3 | 1.6 ± 2 µM | increased the expression of CHOP | decreased the expression of cyclin D1 | 227.3 to 229.9 °C | – | – |
| Cc1ccc(F)cc1NC(=O)N[C@H]1C[C@H](Oc2ccc(C(F)(F)F)cc2)C1 [Compound 7-IV, 1-(5-Fluoro-2-methylphenyl)-3-(trans-3-(4-(trifluoromethyl)phenoxy)cyclobutyl)urea] | 0.7 ± 0.2 | 1.4 ± 0.1 | > 10 µM | – | – | 204.2 to 206 °C | – | – |
| O=C(Nc1cccc(C(F)(F)F)c1)N[C@H]1CC[C@H](Oc2ccc(C(F)(F)F)cc2)C1 [Compound 2-V] | 1.2 ± 0.4 | 7 ± 0.9 | 2.5 ± 0.5 µM | – | – | 123.5 to 125.3 °C | – | – |
| N#Cc1ccc(NC(=O)N[C@H]2CC[C@H](Oc3ccc(C(F)(F)F)cc3)CC2)c(F)c1 [Compound 8-VI, 1-(4-Cyano-2-fluorophenyl)-3-(trans-4-(4-(trifluoromethyl)phenoxy)cyclohexyl)urea] | 2.4 ± 0.4 | 6.2 ± 1.3 | 1.4 ± 0.3 µM | – | – | 221.6 to 223.6 °C | – | – |
| N#Cc1cc(F)cc(NC(=O)N[C@H]2C[C@H](Oc3ccc(C(F)(F)F)cc3)C2)c1 [Compound 4-IV, 1-(3-Cyano-5-fluorophenyl)-3-(trans-3-(4-(trifluoromethyl)phenoxy)cyclobutyl)urea] | 2 ± 0.4 | 5.3 ± 0.6 | 2.8 ± 1.3 µM | – | – | 182.8 to 185 °C | – | – |
| N#Cc1cccc(NC(=O)N[C@H]2CC[C@H](Oc3ccc(C(F)(F)F)cc3)C2)c1 [Compound 3-V] | 0.8 ± 0.2 | 1.6 ± 0.2 | 6.5 ± 2.3 µM | – | – | 160.2 to 162.1 °C | – | – |
| O=C(Nc1cccc(C(F)(F)F)c1)N[C@H]1C[C@H](Oc2ccc(C(F)(F)F)cc2)C1 [Compound 2-IV, 1-(trans-3-(4-(Trifluoromethyl)phenoxy)cyclobutyl)-3-(3-(trifluoromethyl)phenyl)urea] | 2.4 ± 0.6 | 6.5 ± 1.2 | 3.4 ± 1 µM | – | – | 171.8 to 174.6 °C | – | – |
